Measured values taken from publication PMC9403976, “Elucidating the path to Plasmodium prolyl-tRNA synthetase inhibitors that overcome halofuginone resistance” (Nature Communications, 2022).
Several values for one entry are separate records, joined by “and”; a condition that tells them apart may be missing. Identical values can stand only once. Like-named read-outs stand apart in the source and are kept apart here.

Columns and labels:
HsProRS = HsProRS (Homo sapiens, UniProt P07814); test: TR-FRET ligand displacement assay with tracer MAT379 (CoraFluor-1-Halo and anti-His6 antibody formats); format: binding; parameters: made in house; host or cells: E. coli SoluBL-21; details: for TR-FRET dose-response, normalized signal (SI Fig 11): individual replicates
HsProRS, sequence (P07814 996-1512): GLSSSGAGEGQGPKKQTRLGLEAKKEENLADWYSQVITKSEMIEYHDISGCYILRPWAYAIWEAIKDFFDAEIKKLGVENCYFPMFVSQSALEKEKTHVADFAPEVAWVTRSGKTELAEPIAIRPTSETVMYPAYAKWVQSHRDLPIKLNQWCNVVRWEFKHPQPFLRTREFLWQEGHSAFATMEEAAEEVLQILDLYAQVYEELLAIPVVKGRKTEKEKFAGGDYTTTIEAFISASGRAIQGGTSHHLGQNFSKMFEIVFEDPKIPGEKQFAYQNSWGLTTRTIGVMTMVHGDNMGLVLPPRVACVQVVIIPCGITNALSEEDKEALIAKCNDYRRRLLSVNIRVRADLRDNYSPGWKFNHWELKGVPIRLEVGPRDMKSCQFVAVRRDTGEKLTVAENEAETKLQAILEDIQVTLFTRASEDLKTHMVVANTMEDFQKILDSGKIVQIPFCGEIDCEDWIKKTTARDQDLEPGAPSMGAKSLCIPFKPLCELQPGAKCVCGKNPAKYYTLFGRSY

PfcProRS = biological target: T1, PfcProRS (Plasmodium falciparum, UniProt Q8I5R7); format: binding; details: single replicates
T1 construct: made in house; host or cells: E. coli SoluBL-21
T1 sequence (Q8I5R7 249-746): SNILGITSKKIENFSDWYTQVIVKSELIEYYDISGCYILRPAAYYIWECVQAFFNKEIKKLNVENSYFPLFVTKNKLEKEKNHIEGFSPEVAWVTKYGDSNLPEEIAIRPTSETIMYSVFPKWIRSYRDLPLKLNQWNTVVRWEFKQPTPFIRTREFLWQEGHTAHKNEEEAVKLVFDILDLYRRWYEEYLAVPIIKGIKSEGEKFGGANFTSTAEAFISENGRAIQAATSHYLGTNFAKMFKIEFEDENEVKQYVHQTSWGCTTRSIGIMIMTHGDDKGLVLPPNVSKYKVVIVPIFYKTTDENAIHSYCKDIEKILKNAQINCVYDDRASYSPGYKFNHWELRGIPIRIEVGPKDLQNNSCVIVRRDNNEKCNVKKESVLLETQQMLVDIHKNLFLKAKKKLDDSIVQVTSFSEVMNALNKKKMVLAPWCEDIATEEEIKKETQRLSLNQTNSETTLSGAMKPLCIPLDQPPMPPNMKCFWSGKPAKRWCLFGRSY

P. falciparum Dd2-2D4 = test: P. falciparum asexual blood stage (ABS) growth assay, SYBR Green, 72 h, wild-type parasites; format: cell-based, Plasmodium falciparum; details: Plasmodium falciparum, DD2; SI Fig 16b; values on -log scale; read-out: ABS - Dd2-2D4 (converted)
Procedure: Parasites were maintained under standard culture conditions as described previously[56],[57]. […] The P. falciparum Dd2 cell lines used in this study (Dd2-2D4, halofuginone-induced, and HFGR-I) have previously undergone whole genome sequencing in our labs.
This assay was performed as previously described[8]. In short, P. falciparum erythrocytic-stage parasites at 1% parasitemia and 1% hematocrit in RPMI + 0.5% Albumax were seeded at 40 μL/well in 384-well plates with test compounds in triplicate, dose-response format with 10 μM dihydroartemisinin as a kill-control and blank (no compound) wells as a growth-control. […] After 72 h, growth was quantified by measuring fluorescence (Molecular Devices SpectraMax iD5) following SYBR Green 1 staining. Data were analyzed in Excel and plotted in PRISM (V. 8.4.3–9.1.0, GraphPad).

## CC(C)(C)OC(=O)NC1(C(=O)Nc2nccnc2C(=O)NC2Cc3ccccc3C2)CCCCC1 [compound 16]
HsProRS
  IC50: > 10 µM
HsProRS; + 100 μM proline, 10 μM
  HsProRS % signal at 10 μM, + 100 μM proline: 70.7%
HsProRS; Log[inhibitor] (M) -5.000
  normalized TR-FRET ligand displacement signal, dose-response replicates (SI Fig 6): 4.34E-01 and 4.81E-01 and 6.11E-01
  TR-FRET dose-response, normalized signal (SI Fig 11): 8.52E-01 and 8.40E-01 and 8.43E-01
HsProRS; Log[inhibitor] (M) -5.301
  normalized TR-FRET ligand displacement signal, dose-response replicates (SI Fig 6): 6.93E-01 and 7.38E-01 and 8.04E-01
  TR-FRET dose-response, normalized signal (SI Fig 11): 9.27E-01 and 9.08E-01 and 9.74E-01
HsProRS; Log[inhibitor] (M) -5.601
  normalized TR-FRET ligand displacement signal, dose-response replicates (SI Fig 6): 9.79E-01 and 9.61E-01 and 8.02E-01
  TR-FRET dose-response, normalized signal (SI Fig 11): 9.47E-01 and 9.15E-01 and 9.10E-01
HsProRS; Log[inhibitor] (M) -5.904
  normalized TR-FRET ligand displacement signal, dose-response replicates (SI Fig 6): 1.00E+00 and 9.00E-01 and 9.53E-01
  TR-FRET dose-response, normalized signal (SI Fig 11): 9.81E-01 and 1.01E+00 and 9.64E-01
HsProRS; Log[inhibitor] (M) -6.208
  normalized TR-FRET ligand displacement signal, dose-response replicates (SI Fig 6): 1.01E+00 and 9.68E-01 and 8.67E-01
  TR-FRET dose-response, normalized signal (SI Fig 11): 9.74E-01 and 9.73E-01 and 9.58E-01
HsProRS; Log[inhibitor] (M) -6.509
  normalized TR-FRET ligand displacement signal, dose-response replicates (SI Fig 6): 8.93E-01 and 9.31E-01 and 9.89E-01
  TR-FRET dose-response, normalized signal (SI Fig 11): 9.98E-01 and 9.53E-01 and 9.97E-01
HsProRS; Log[inhibitor] (M) -6.796
  normalized TR-FRET ligand displacement signal, dose-response replicates (SI Fig 6): 9.58E-01 and 1.05E+00 and 1.01E+00
  TR-FRET dose-response, normalized signal (SI Fig 11): 9.61E-01 and 9.66E-01 and 9.67E-01
HsProRS; Log[inhibitor] (M) -7.108
  normalized TR-FRET ligand displacement signal, dose-response replicates (SI Fig 6): 9.61E-01 and 9.43E-01 and 9.87E-01
  TR-FRET dose-response, normalized signal (SI Fig 11): 9.51E-01 and 9.57E-01 and 9.59E-01
HsProRS; Log[inhibitor] (M) -7.409
  normalized TR-FRET ligand displacement signal, dose-response replicates (SI Fig 6): 1.08E+00 and 1.02E+00 (2×)
  TR-FRET dose-response, normalized signal (SI Fig 11): 9.88E-01 and 8.98E-01 and 1.00E+00
HsProRS; Log[inhibitor] (M) -7.710
  normalized TR-FRET ligand displacement signal, dose-response replicates (SI Fig 6): 9.30E-01 and 9.73E-01 and 8.91E-01
  TR-FRET dose-response, normalized signal (SI Fig 11): 9.77E-01 and 9.48E-01 and 9.54E-01
HsProRS; Log[inhibitor] (M) -8.000
  normalized TR-FRET ligand displacement signal, dose-response replicates (SI Fig 6): 9.09E-01 and 9.96E-01 and 8.17E-01
  TR-FRET dose-response, normalized signal (SI Fig 11): 9.83E-01 and 9.29E-01 and 9.65E-01
HsProRS; Log[inhibitor] (M) -8.301
  normalized TR-FRET ligand displacement signal, dose-response replicates (SI Fig 6): 9.56E-01 and 8.69E-01 and 9.45E-01
  TR-FRET dose-response, normalized signal (SI Fig 11): 1.00E+00 and 1.01E+00 and 9.30E-01
HsProRS; Log[inhibitor] (M) -8.602
  normalized TR-FRET ligand displacement signal, dose-response replicates (SI Fig 6): 9.44E-01 and 9.32E-01 and 1.00E+00
  TR-FRET dose-response, normalized signal (SI Fig 11): 9.93E-01 and 9.41E-01 and 1.01E+00
HsProRS; Log[inhibitor] (M) -9.000
  normalized TR-FRET ligand displacement signal, dose-response replicates (SI Fig 6): 8.94E-01 and 8.85E-01 and 9.67E-01
  TR-FRET dose-response, normalized signal (SI Fig 11): 9.74E-01 and 9.63E-01 and 9.89E-01
HsProRS; Log[inhibitor] (M) -9.301
  normalized TR-FRET ligand displacement signal, dose-response replicates (SI Fig 6): 1.12E+00 and 1.00E+00 and 9.62E-01
  TR-FRET dose-response, normalized signal (SI Fig 11): 9.82E-01 and 9.33E-01 and 9.53E-01
HsProRS; no added proline/ATP (-), 10 μM
  HsProRS % signal at 10 μM: 84.5%
HsProRS; read-out: HsProRS IC50 + 100 μM proline, + 100 μM proline
  IC50: > 10 µM
PfcProRS; Log[inhibitor] (M) -5.000
  dose-response signal (normalized), SI Fig 8: 6.20E-01 and 5.27E-01 and 6.63E-01
PfcProRS; Log[inhibitor] (M) -5.301
  dose-response signal (normalized), SI Fig 8: 7.82E-01 and 8.01E-01 and 7.78E-01
PfcProRS; Log[inhibitor] (M) -5.601
  dose-response signal (normalized), SI Fig 8: 9.11E-01 and 9.60E-01 and 1.00E+00
PfcProRS; Log[inhibitor] (M) -5.904
  dose-response signal (normalized), SI Fig 8: 1.10E+00 and 9.14E-01 and 1.01E+00
PfcProRS; Log[inhibitor] (M) -6.208
  dose-response signal (normalized), SI Fig 8: 9.01E-01 and 9.36E-01 and 9.23E-01
PfcProRS; Log[inhibitor] (M) -6.509
  dose-response signal (normalized), SI Fig 8: 1.06E+00 and 9.75E-01 and 1.11E+00
PfcProRS; Log[inhibitor] (M) -6.796
  dose-response signal (normalized), SI Fig 8: 9.95E-01 (2×) and 1.12E+00
PfcProRS; Log[inhibitor] (M) -7.108
  dose-response signal (normalized), SI Fig 8: 9.41E-01 and 8.82E-01 and 1.04E+00
PfcProRS; Log[inhibitor] (M) -7.409
  dose-response signal (normalized), SI Fig 8: 1.04E+00 and 1.02E+00 and 9.01E-01
PfcProRS; Log[inhibitor] (M) -7.710
  dose-response signal (normalized), SI Fig 8: 9.65E-01 and 9.90E-01 and 1.00E+00
PfcProRS; Log[inhibitor] (M) -8.000
  dose-response signal (normalized), SI Fig 8: 9.92E-01 and 8.87E-01 and 9.29E-01
PfcProRS; Log[inhibitor] (M) -8.301
  dose-response signal (normalized), SI Fig 8: 9.41E-01 and 9.84E-01 and 9.99E-01
PfcProRS; Log[inhibitor] (M) -8.602
  dose-response signal (normalized), SI Fig 8: 9.39E-01 and 9.44E-01 and 1.00E+00
PfcProRS; Log[inhibitor] (M) -9.000
  dose-response signal (normalized), SI Fig 8: 9.16E-01 and 9.94E-01 and 9.86E-01
PfcProRS; Log[inhibitor] (M) -9.301
  dose-response signal (normalized), SI Fig 8: 9.11E-01 and 9.01E-01 and 9.58E-01
P. falciparum Dd2-2D4
  EC50: 6.11 µM
